Data published in PubChem BioAssay (NCI).
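Results reflect a 48-hour exposure of cells in 96-well plates to compound at five concentrations. At the TGI there is no net growth.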

Experiments:
Test in all cases: NCI tumour cell line growth inhibition, 48 h
[1] = tested on: OVCAR-8 ovarian
[2] = tested on: HL-60(TB) leukemia
[3] = tested on: HS 578T breast
[4] = tested on: LOX IMVI melanoma
[5] = tested on: NCI-H522 lung
[6] = tested on: SNB-19 CNS
[7] = tested on: RXF 393 renal
[8] = tested on: OVCAR-4 ovarian
[9] = tested on: UACC-257 melanoma
[10] = tested on: OVCAR-5 ovarian
[11] = tested on: SN12C renal
[12] = tested on: HCT-116 colon
[13] = tested on: K-562 leukemia
[14] = tested on: MALME-3M melanoma
[15] = tested on: ACHN renal
[16] = tested on: SF-268 CNS
[17] = tested on: CCRF-CEM leukemia
[18] = tested on: U251 CNS
[19] = tested on: MDA-MB-231 breast
[20] = tested on: HCC-2998 colon
[21] = tested on: UACC-62 melanoma
[22] = tested on: HOP-92 NSCLC
[23] = tested on: M14 melanoma
[24] = tested on: HCT-15 colon
[25] = tested on: HT29 colon
[26] = tested on: OVCAR-3 ovarian
[27] = tested on: SK-OV-3 ovarian
[28] = tested on: MDA-MB-435
[29] = tested on: SK-MEL-28 melanoma
[30] = tested on: COLO 205 colon
[31] = tested on: CAKI-1 renal
[32] = tested on: SNB-75 CNS
[33] = tested on: UO-31 renal
[34] = tested on: KM12 colon
[35] = tested on: TK-10 renal
[36] = tested on: NCI-H23 lung
[37] = tested on: RPMI-8226 leukemia
[38] = tested on: PC-3 prostate
[39] = tested on: MOLT-4 leukemia
[40] = tested on: NCI-H226 lung
[41] = tested on: NCI/ADR-RES ovarian
[42] = tested on: SF-295 CNS
[43] = tested on: HOP-62 NSCLC
[44] = tested on: SF-539 CNS
[45] = tested on: 786-0 renal
[46] = tested on: SK-MEL-2 melanoma
[47] = tested on: BT-549 breast
[48] = tested on: A498 renal
[49] = tested on: MCF7 breast
[50] = tested on: NCI-H460 lung
[51] = tested on: T-47D breast
[52] = tested on: EKVX NSCLC
[53] = tested on: SR leukemia
[54] = tested on: SW-620 colon
[55] = tested on: DU-145 prostate
[56] = tested on: SK-MEL-5 melanoma
[57] = tested on: A549 NSCLC
[58] = tested on: IGROV1 ovarian
[59] = tested on: MDA-N

Cn1c(=O)cc(NNc2ccccc2)[nH]c1=O
TGI [1]: 42.1 µM
TGI [2]: 56.8 µM
TGI [3]: > 100 µM
TGI [4]: 28.3 µM
TGI [5]: 28.9 µM
TGI [6]: > 100 µM
TGI [7]: 33.6 µM
TGI [8]: > 100 µM
TGI [9]: > 100 µM
TGI [10]: > 100 µM
TGI [11]: > 100 µM
TGI [12]: 31.6 µM
TGI [13]: > 100 µM
TGI [14]: 75.9 µM
TGI [15]: > 100 µM
TGI [16]: > 100 µM
TGI [17]: 90.4 µM
TGI [18]: 31.7 µM
TGI [19]: 33.5 µM
TGI [20]: > 100 µM
TGI [21]: > 100 µM
TGI [22]: 44.7 µM
TGI [23]: 89.9 µM
TGI [24]: 30.1 µM
TGI [25]: 29.1 µM
TGI [26]: 30.4 µM
TGI [27]: > 100 µM
TGI [28]: 75 µM
TGI [29]: 60.4 µM
TGI [30]: > 100 µM
TGI [31]: 29.2 µM
TGI [32]: > 100 µM
TGI [33]: > 100 µM
TGI [34]: 49.9 µM
TGI [35]: 65.9 µM
TGI [36]: > 100 µM
TGI [37]: 48.1 µM
TGI [38]: > 100 µM
TGI [39]: > 100 µM
TGI [40]: > 100 µM
TGI [41]: > 100 µM
TGI [42]: > 100 µM
TGI [43]: > 100 µM
TGI [44]: > 100 µM
TGI [45]: 30 µM
TGI [46]: > 100 µM
TGI [47]: > 100 µM
TGI [48]: > 100 µM
TGI [49]: 12.8 µM
TGI [50]: > 100 µM
TGI [51]: 38.9 µM
TGI [52]: > 100 µM
TGI [53]: 57.8 µM
TGI [54]: 31.3 µM
TGI [55]: > 100 µM
TGI [56]: > 100 µM
TGI [57]: > 100 µM
TGI [58]: 85.7 µM
TGI [59]: > 100 µM

O=C(O)C(Cc1c[nH]c2ccccc12)C(=O)NO (stereo not drawn)
TGI [1]: > 100 µM
TGI [2]: > 100 µM
TGI [3]: > 100 µM
TGI [4]: > 100 µM
TGI [5]: > 100 µM
TGI [6]: > 100 µM
TGI [7]: > 100 µM
TGI [8]: > 100 µM
TGI [9]: > 100 µM
TGI [10]: > 100 µM
TGI [11]: > 100 µM
TGI [12]: > 100 µM
TGI [13]: > 100 µM
TGI [14]: > 100 µM
TGI [15]: > 100 µM
TGI [16]: > 100 µM
TGI [17]: > 100 µM
TGI [18]: > 100 µM
TGI [19]: > 100 µM
TGI [20]: > 100 µM
TGI [21]: > 100 µM
TGI [22]: > 100 µM
TGI [23]: > 100 µM
TGI [24]: > 100 µM
TGI [25]: > 100 µM
TGI [26]: > 100 µM
TGI [27]: > 100 µM
TGI [28]: > 100 µM
TGI [29]: > 100 µM
TGI [30]: > 100 µM
TGI [31]: > 100 µM
TGI [32]: > 100 µM
TGI [33]: > 100 µM
TGI [34]: > 100 µM
TGI [35]: > 100 µM
TGI [36]: > 100 µM
TGI [37]: > 100 µM
TGI [38]: > 100 µM
TGI [39]: > 100 µM
TGI [40]: > 100 µM
TGI [41]: > 100 µM
TGI [42]: > 100 µM
TGI [43]: > 100 µM
TGI [44]: > 100 µM
TGI [45]: > 100 µM
TGI [46]: > 100 µM
TGI [47]: > 100 µM
TGI [48]: > 100 µM
TGI [49]: > 100 µM
TGI [50]: > 100 µM
TGI [51]: > 100 µM
TGI [52]: > 100 µM
TGI [53]: > 100 µM
TGI [54]: > 100 µM
TGI [55]: > 100 µM
TGI [56]: > 100 µM
TGI [57]: > 100 µM
TGI [58]: > 100 µM
TGI [59]: > 100 µM
